Results taken from patent US12419875B2, “Use of Axitinib and analogs thereof in preparing blood-brain barrier permeability regulator” (ZHEJIANG UNIVERSITY, priority 2018, dated 2025).

Experiments:
Claudin-5 = assay: VEGF-stimulated physiological blood-brain barrier Transwell model, Claudin-5 immunofluorescence; assay type: cell-based; settings: bEnd.3 Transwell, exogenous VEGF plus Axitinib 0, 2, 4 μg/mL, 24 hours; FIG. 7
Experimental: A Transwell model of brain microvascular endothelial cells bEnd.3 simulates a physiological blood-brain barrier. Transwell chambers were stimulated with the added exogenous vascular endothelial growth factor (VEGF), and further with Axitinib at different concentrations (0, 2 μg/mL, 4 μg/mL) synergistically for 24 hours. Thereafter, Immunofluorescence staining was performed on bEnd.3 cells on the Transwell chamber membrane. […] Panel B is the result of fluorescence semi-quantitative analysis of Claudin-5 expression by Image J (n=3).
Brain microvascular endothelial cells bEnd.3 were used as model cells of a blood-brain barrier. 0.5 mL suspension of well-grown bEnd.3 cells was inoculated in the chamber of a 12-well Transwell plate with a pore size of 0.4 μm at a cell density of 1×10^5/well. 1.5 mL of fresh culture medium was supplemented in the outer chamber. The culture medium was refreshed every other day. Incubation was continued for 15 days at 37° C. and 5% CO2. When the cell transmembrane resistance value was greater than 150 ohm·cm^2 (Ω·cm^2), a cell model of physiological blood-brain barrier was obtained for evaluation.
The physiological blood-brain barrier as constructed by Method 1 in the Example 1 was used as a model. Exogenous vascular endothelial cell growth factor (VEGF) and Axitinib at different concentrations were added to the Transwell chamber. […]

[1] = system: pathological blood-brain barrier (bEnd.3 cells co-incubated with U87 MG glioma cells); assay: Pathological blood-brain barrier Transwell model, FITC-dextran transmembrane transport; assay type: cell-based; settings: 10 μM, 24 hours, then FITC-dextran 10 kDa for 4 hours; FIG. 11
Experimental: A Transwell model of co-incubation of brain microvascular endothelial cells bEnd.3 and glioma cells U87 MG simulates a pathological blood-brain barrier. Axitinib (10 μM), an Axitinib analog of phosphatidylinositol kinase (PI3K) inhibitor LY294002 (10 μM), protein kinase B (AKT) agonist SC79 (10 μM) were added into the Transwell chamber. After 24 hours, the Transwell chamber and the outer chamber were cleaned with PBS, and a solution of FITC-dextran in HBSS was added to the Transwell chamber, and was left for 4 hours. […] A physiological blood-brain barrier simulated by a Transwell model of brain microvascular endothelial cell bEnd.3 was used as a positive control (n=3).
U87 MG glioma cells were used as brain tumor model cells. 1.5 mL suspension of well-grown U87 MG cell suspension was inoculated in a 12-well plate at a cell density of 2×10^5/well. Incubation was continued at 37° C. and 5% CO2 until the cells adhere. […]
The physiological blood-brain barrier and the pathological blood-brain barrier as constructed in Method 1 and Method 2 in the Example 1 were used as models, respectively. […] After the cells were incubated at 37° C. in the dark for 4 hours, concentration of FITC-dextran transferred to the outer chamber via the Transwell chamber was detected with a fluorescence spectrophotometer.

[2] = system: pathological blood-brain barrier (bEnd.3 cells with tumor cell culture); assay: Tumor cell culture co-incubated with bEnd.3 cells (U87MG removed), cell transmembrane resistance; assay type: cell-based; settings: tumor cell culture kept, 10 μM, 24 hours, FIG. 15
Experimental: FIG. 15: Co-incubation of a tumor cell culture and bEnd.3 cells in vitro, regulation of blood-brain barrier permeability by Axitinib and an analog thereof, and determination of a cell transmembrane resistance. A Transwell model of co-incubation of brain microvascular endothelial cells bEnd.3 and glioma cells U87 MG simulates a pathological blood-brain barrier. Once a pathological blood-brain barrier model was formed, U87MG glioma cells in the outer chamber of Transwell were removed, while the tumor cell cultures were remained. Axitinib (10 μM) and an Axitinib analog of phosphatidylinositol kinase (PI3K) inhibitor LY294002 (10 μM) were added to the Transwell chamber. After 24 hours, cell transmembrane resistance was detected by a cell resistance meter. A physiological blood-brain barrier simulated by a Transwell model of brain microvascular endothelial cell bEnd.3 was used as a positive control (n=5).
The physiological blood-brain barrier and the pathological blood-brain barrier as constructed in Method 1 and Method 2 in the Example 1 were used as models, respectively. Once a pathological blood-brain barrier model was formed, U87MG glioma cells in the outer chamber of Transwell were removed, while the tumor cell cultures were remained. […] Cell transmembrane resistance was detected by a cell resistance meter.

Claudin-5/Occludin = assay: Tumor cell culture co-incubated with bEnd.3 cells (U87MG removed), Claudin-5/Occludin immunofluorescence; assay type: cell-based; settings: tumor cell culture kept, 10 μM, 24 hours, FIG. 17
Experimental: FIG. 17: Co-incubation of a tumor cell culture and bEnd.3 cells in vitro, and immunofluorescent staining of a blood-brain barrier tight junction protein of Claudin-5/Occludin. A Transwell model of co-incubation of brain microvascular endothelial cells bEnd.3 and glioma cells U87 MG simulates a pathological blood-brain barrier. Once a pathological blood-brain barrier model was formed, U87MG glioma cells in the outer chamber of Transwell were removed, while the tumor cell cultures were remained. Axitinib (10 μM) and an Axitinib analog of phosphatidylinositol kinase (PI3K) inhibitor LY294002 (10 μM) were added to the Transwell chamber. After 24 hours, immunofluorescent staining was performed on bEnd.3 cells on the Transwell chamber membrane. A physiological blood-brain barrier simulated by a Transwell model of brain microvascular endothelial cell bEnd.3 was used as a positive control.
The physiological blood-brain barrier and the pathological blood-brain barrier as constructed in Method 1 and Method 2 in the Example 1 were used as models, respectively. Once a pathological blood-brain barrier model was formed, U87MG glioma cells in the outer chamber of Transwell were removed, while the tumor cell cultures were remained. Axitinib (10 μM) and an Axitinib analog of phosphatidylinositol kinase (PI3K) inhibitor LY294002 (10 μM) were added to the Transwell chamber. […]

[3] = system: pathological blood-brain barrier; assay: Evans blue permeation into the brain, in situ glioma model; assay type: in vivo, BABL/c nude mice; settings: glioma nude mice, 10 mg/kg tail vein, Evans blue after 24 hours; vs tumor-bearing control; FIGS. 18 and 19
Experimental: After 24 hours, an Evans blue solution was injected into tail veins at an administration dose of 5 mg/kg.
After 24 hours, an Evans blue solution was injected into tail veins at an administration dose of 5 mg/kg. […] The Evans blue was extracted from the brain tissue with an organic solvent of N,N-dimethylformamide. The result as shown in the figure is the amount of Evans blue permeated into the brain as quantitatively detected by ultraviolet spectrophotometry (n=3).
Male BABL/c nude mice (20±2 g) were used as the model animals. U87-luci glioma cells expressing luciferase were inoculated in the striatum area of nude mice at a concentration of 5×10^5 cells/5 μL by means of a brain stereotaxic instrument (inoculation coordinates, 0.8 mm on the anterior side of bregma, 2 mm on the right side, and 3 mm in depth), to construct an in situ glioma model. […] After 24 hours, an Evans blue solution was injected into tail veins at an administration dose of 5 mg/kg. […] The distribution intensity of Evans blue in the brain tissue was qualitatively observed with a small animal live imaging instrument. The Evans blue was extracted from the brain tissue with an organic solvent of N,N-dimethylformamide. The amount of Evans blue permeated into the brain was quantitatively detected by ultraviolet spectrophotometry.

[4] = system: pathological blood-brain barrier; assay: Evans blue permeation into the brain after treatment, model of Parkinson's disease; assay type: in vivo, C57/BL6 mice
[5] = system: model of Parkinson's disease; assay: Movement time within 2 minutes, model of Parkinson's disease; assay type: in vivo, C57/BL6 mice; settings: FIG. 28
Experimental: After the treatment was accomplished, movement time within 2 minutes (walking, lifting of both forelimbs, washing face, hair grooming and the like) was recorded for each of the test groups (n=5).
After the Axitinib treatment and the levodopa treatment was accomplished, movement time within 2 minutes (walking, lifting of both forelimbs, washing face, hair grooming and the like) was recorded for each of the test groups.

tyrosine hydroxylase = assay: Striatum tyrosine hydroxylase immunohistochemistry, model of Parkinson's disease; settings: FIG. 29
[6] = Axitinib 10 mg/kg 7 days vs levodopa 20 mg/kg 10 days

CNC(=O)c1ccccc1Sc1ccc2c(/C=C/c3ccccn3)n[nH]c2c1 [Axitinib, N-methyl-2-((3-((1E)-2-(pyridine-2-yl)ethenyl)-1H-indazol-6-yl)sulfanyl)benzamide]
Expression of tight junction protein Claudin-5 (Claudin-5): reduce the degree to which Claudin-5 is down-regulated in a dose-dependent manner | FITC-dextran transmembrane transport (blood-brain barrier permeability) [1]: reduce blood-brain barrier permeability | Cell transmembrane resistance (blood-brain barrier function) [2]: the blood-brain barrier function is recovered from a pathologically impaired state to a state close to a physiological barrier | Expression of tight junction protein Claudin-5/Occludin (Claudin-5/Occludin): the degree to which pathological blood-brain barrier tight junction protein of Claudin-5/Occludin is down-regulated is reduced | Amount of Evans blue permeated into the brain [3]: the amount of Evans blue permeated into the brain is reduced | Amount of Evans blue permeated into the brain, compared with the levodopa treatment group [4, 6]: significantly lower than that of the levodopa treatment group | Amount of Evans blue permeated into the brain ([4]; Axitinib 10 mg/kg tail vein 7 days, levodopa 20 mg/kg intraperitoneally 10 days, vs Parkinson's control, FIGS. 26 and 27): reduced to varied degrees | Dyskinesia (movement time), Axitinib compared with levodopa [5, 6]: no difference in their efficacy | Dyskinesia (movement time within 2 minutes) ([5]; Axitinib 10 mg/kg 7 days, levodopa 20 mg/kg 10 days, vs Parkinson's control): significantly alleviated | Expression of striatum tyrosine hydroxylase, compared with the levodopa treatment group (tyrosine hydroxylase; [6]): superior to that in the levodopa treatment group | Expression of striatum tyrosine hydroxylase (tyrosine hydroxylase; Axitinib 10 mg/kg 7 days, levodopa 20 mg/kg 10 days): significantly up-regulated
